Assay results published in patent publication US20100267561A1, “HERBICIDAL PYRIDAZINONE DERIVATIVES” (priority 2007, published 2010).
Read-outs that look alike come from different tables or passages of the source.

How the values were obtained:
Assay type in all cases: in vivo
[1] = system: large crabgrass (Digitaria sanguinalis); test: Test A pre-/postemergence plant response; settings: for pest or weed control at 31 g/ha / pest or weed control at 125 g/ha: Digitaria sanguinalis, 240 h, read-out: Plant response rating, Crabgrass, Large
In short: (§1)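 Both pre- and postemergence treatment given concurrently; postemergence seedlings measured 2–10 cm at the one- to two-leaf stage. Visual injury, 0–100 scale versus untreated, at ~10 days.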

[2] = system: wheat (Triticum aestivum); test: Test A pre-/postemergence plant response; settings: for plant injury at 31 g/ha / plant injury at 125 g/ha: Triticum aestivum, 240 h, read-out: Plant response rating, Wheat
In short: as §1

[3] = system: giant foxtail (Setaria faberi); test: Test A pre-/postemergence plant response; settings: for pest or weed control at 31 g/ha / pest or weed control at 125 g/ha: Setaria faberi, 240 h, read-out: Plant response rating, Foxtail, Giant
In short: as §1

corn (Zea mays) = test: Test A pre-/postemergence plant response; settings: for Corn plant response rating (crop injury, 0 = no effect, 100 = complete kill) at 31 g/ha / Corn plant response rating (crop injury, 0 = no effect, 100 = complete kill) at 125 g/ha: Zea mays, 240 h
In short: as §1

[4] = system: barnyardgrass (Echinochloa crus-galli); test: Test A pre-/postemergence plant response; settings: for pest or weed control at 31 g/ha / pest or weed control at 125 g/ha: Echinochloa crus-galli, 240 h, read-out: Plant response rating, Barnyardgrass
In short: as §1

[5] = system: pigweed (Amaranthus retroflexus); test: Test A pre-/postemergence plant response; settings: for pest or weed control at 31 g/ha / pest or weed control at 125 g/ha: Amaranthus retroflexus, 240 h, read-out: Plant response rating, Pigweed
In short: as §1

[6] = system: umbrella sedge (Cyperus difformis); test: Test B flooded paddy test plant response
In short: (§2)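 Step one: raise plants to 2 leaves. Step two: flood pots 3 cm over the soil and apply compound into the water, keeping this depth. Step three: after 13–15 greenhouse days, score visually versus controls, 0–100, where 100 means complete control.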

rice (Oryza sativa) = test: Test B flooded paddy test plant response
In short: as §2

[7] = system: barnyardgrass (Echinochloa crus-galli); test: Test B flooded paddy test plant response
In short: as §2

[8] = system: ducksalad (Heteranthera limosa); test: Test B flooded paddy test plant response
In short: as §2

[9] = Postemergence, 31 g ai/ha, 0 to 100 scale (0 no effect, 100 complete control)
[10] = Postemergence, 125 g ai/ha, 0 to 100 scale, 0 no effect, 100 complete control
[11] = Preemergence, 31 g ai/ha, 0 to 100 scale, 0 is no effect, 100 is complete control
[12] = Preemergence, 125 g ai/ha, 0 to 100 scale (0 no effect, 100 complete control)
[13] = Flood (flooded paddy test), 62 g ai/ha, scale 0 to 100, 0 no effect, 100 complete control
[14] = Flood (flooded paddy test), 125 g ai/ha, scale 0 to 100, 0 no effect, 100 complete control
[15] = Flood (flooded paddy test), 250 g ai/ha, scale 0 to 100, 0 no effect, 100 complete control
[16] = Flood, 31 g ai/ha, scale 0 to 100
[17] = post-emergence, Postemergence, 31 g ai/ha, 0 to 100 scale (0 no effect, 100 complete control)
[18] = post-emergence, Postemergence, 125 g ai/ha, 0 to 100 scale, 0 no effect, 100 complete control
[19] = pre-emergence, Preemergence, 31 g ai/ha, 0 to 100 scale, 0 is no effect, 100 is complete control
[20] = pre-emergence, Preemergence, 125 g ai/ha, 0 to 100 scale (0 no effect, 100 complete control)

COCc1cc(-c2ccc(Br)cc2)nn1-c1c(O)cnn(C)c1=O [Compound 68]
0: Plant response rating, Crabgrass, Large [1, 11] | Plant response rating, Wheat [2, 9] | Plant response rating, Wheat [2, 10] | Plant response rating, Wheat [2, 11] | Plant response rating, Corn (corn (Zea mays); [9]) | Plant response rating, Corn (corn (Zea mays); [11]) | Plant response rating, Corn (corn (Zea mays); [12]) | Plant response rating, Barnyardgrass [4, 11] | Plant response rating, Pigweed [5, 9] | Plant response rating, Pigweed [5, 10] | Plant response rating, Pigweed [5, 11] | Plant response rating, Pigweed [5, 12] | Plant response rating, Sedge, Umbrella [6, 13] | Plant response rating, Sedge, Umbrella [6, 14] | Plant response rating, Sedge, Umbrella [6, 15] | Plant response rating, Sedge, Umbrella [6, 16] | Plant response rating, Rice (rice (Oryza sativa); [13]) | Plant response rating, Rice (rice (Oryza sativa); [14]) | Plant response rating, Rice (rice (Oryza sativa); [15]) | Plant response rating, Rice (rice (Oryza sativa); [16]) | Plant response rating, Barnyardgrass [7, 13] | Plant response rating, Barnyardgrass [7, 14] | Plant response rating, Barnyardgrass [7, 15] | Plant response rating, Barnyardgrass [7, 16] | Plant response rating, Ducksalad [8, 13] | Plant response rating, Ducksalad [8, 14] | Plant response rating, Ducksalad [8, 15] | Plant response rating, Ducksalad [8, 16]
100: Plant response rating, Foxtail, Giant [3, 12] | Plant response rating, Barnyardgrass [4, 10]
90: Plant response rating, Foxtail, Giant [3, 10] | Plant response rating, Barnyardgrass [4, 12]
10: Plant response rating, Crabgrass, Large [1, 9] | Plant response rating, Crabgrass, Large [1, 10] | Plant response rating, Crabgrass, Large [1, 12] | Plant response rating, Foxtail, Giant [3, 11] | Plant response rating, Barnyardgrass [4, 9]
50: Plant response rating, Foxtail, Giant [3, 9] | Plant response rating, Corn (corn (Zea mays); [10])

Cc1cc(-c2ccc(Cl)cc2)nn1-c1c(OC(=S)N(C)C)cnn(C)c1=O [Compound 69]
100: Plant response rating, Foxtail, Giant [3, 10] | Plant response rating, Barnyardgrass [4, 10]
90: Plant response rating, Crabgrass, Large [1, 12] | Plant response rating, Foxtail, Giant [3, 9] | Plant response rating, Foxtail, Giant [3, 12] | Plant response rating, Corn (corn (Zea mays); [10]) | Plant response rating, Barnyardgrass [4, 9]
40: Plant response rating, Crabgrass, Large [1, 9]
0: Plant response rating, Crabgrass, Large [1, 11] | Plant response rating, Wheat [2, 9] | Plant response rating, Wheat [2, 11] | Plant response rating, Wheat [2, 12] | Plant response rating, Pigweed [5, 9] | Plant response rating, Pigweed [5, 10] | Plant response rating, Pigweed [5, 11] | Plant response rating, Pigweed [5, 12] | Plant response rating, Sedge, Umbrella [6, 13] | Plant response rating, Sedge, Umbrella [6, 14] | Plant response rating, Sedge, Umbrella [6, 15] | Plant response rating, Sedge, Umbrella [6, 16] | Plant response rating, Rice (rice (Oryza sativa); [13]) | Plant response rating, Rice (rice (Oryza sativa); [14]) | Plant response rating, Rice (rice (Oryza sativa); [15]) | Plant response rating, Rice (rice (Oryza sativa); [16]) | Plant response rating, Barnyardgrass [7, 13] | Plant response rating, Barnyardgrass [7, 14] | Plant response rating, Barnyardgrass [7, 15] | Plant response rating, Barnyardgrass [7, 16] | Plant response rating, Ducksalad [8, 13] | Plant response rating, Ducksalad [8, 14] | Plant response rating, Ducksalad [8, 15] | Plant response rating, Ducksalad [8, 16]
70: Plant response rating, Barnyardgrass [4, 12]
30: Plant response rating, Wheat [2, 10] | Plant response rating, Corn (corn (Zea mays); [12])
60: Plant response rating, Corn (corn (Zea mays); [9])
20: Plant response rating, Foxtail, Giant [3, 11] | Plant response rating, Corn (corn (Zea mays); [11]) | Plant response rating, Barnyardgrass [4, 11]
80: Plant response rating, Crabgrass, Large [1, 10]

Cc1cc(-c2ccc(Br)cc2)nn1-c1c(O)cn[nH]c1=O [Compound 78, 4-[3-(4-bromophenyl)-5-methyl-1H-pyrazol-1-yl]-5-hydroxy-3(2H)-pyridazinone]
90%: plant injury at 125 g/ha [2, 18] | plant injury at 125 g/ha [2, 20] | Corn plant response rating (crop injury, 0 = no effect, 100 = complete kill) at 125 g/ha (corn (Zea mays); [20]) | pest or weed control at 31 g/ha [4, 17]
100%: pest or weed control at 125 g/ha [1, 18] | pest or weed control at 125 g/ha [1, 20] | pest or weed control at 125 g/ha [3, 18] | pest or weed control at 125 g/ha [3, 20] | Corn plant response rating (crop injury, 0 = no effect, 100 = complete kill) at 125 g/ha (corn (Zea mays); [18]) | pest or weed control at 125 g/ha [4, 18] | pest or weed control at 125 g/ha [4, 20]
70%: plant injury at 31 g/ha [2, 17]
20%: pest or weed control at 31 g/ha [3, 19]
10%: pest or weed control at 31 g/ha [1, 19]
60%: Corn plant response rating (crop injury, 0 = no effect, 100 = complete kill) at 31 g/ha (corn (Zea mays); [17])
0%: plant injury at 31 g/ha [2, 19] | Corn plant response rating (crop injury, 0 = no effect, 100 = complete kill) at 31 g/ha (corn (Zea mays); [19]) | pest or weed control at 31 g/ha [4, 19] | pest or weed control at 31 g/ha [5, 17] | pest or weed control at 125 g/ha [5, 18] | pest or weed control at 31 g/ha [5, 19] | pest or weed control at 125 g/ha [5, 20]
80%: pest or weed control at 31 g/ha [1, 17] | pest or weed control at 31 g/ha [3, 17]
